{"source": "patent US10996215B2", "about": "“Methods for determining drug efficacy for the treatment of diffuse large B-cell lymphoma, multiple myeloma, and myeloid cancers” (CELGENE CORPORATION, priority 2013, dated 2021)", "key": {"[1]": {"test_system": "Aiolos, Ikaros, IRF4, Cereblon", "assay": "Western blot of Aiolos, Ikaros, IRF4, Cereblon in DLBCL cell lines", "format": "cell-based, human", "description": "Immunoblots were probed with antibodies recognizing: Aiolos, Ikaros, Cereblon, IRF4, c-myc, CD44, EZH2, EBF 1, PU. 1, and β-actin. Signals were detected with a LI-COR imager\nThe following steps can be performed to harvest cells in preparation for Western Blot analysis. The steps are performed on ice and any centrifugation is performed in a 4° C. refrigerated centrifuge. RIPA lysis buffer (Pierce, cat #89900) is first prepared by adding […] proteinase inhibitors (Pierce, cat #78443) to 1 mL of RIPA buffer. Subsequently, cells are washed once in ice-cold phosphate buffered saline (PBS). The cells are then lysed with 0.25 mL RIPA lysis buffer. The PBMCs are placed on ice for 30 minutes and vortexed every 10 minutes. Lysates are frozen and stored at −80° C. prior to further processing.\nLysates are placed in a QIAshredder® tube (QIAGEN, cat #79656) and spun down 30 sec, top speed (13200 rpm) in an Eppendorf benchtop centrifuge (Model 5415 R). The lysate is then transferred to a 1.5 mL clear Eppendorf tube and spun down 10 min at top speed. The supernatent is collected without disturbing the cell debris pellet. The supernatent is dry ice frozen and stored at −80° C. prior to analysis.\nThe protein concentration in supernatent is measured using BCA assay and the expected protein yield is about 0.5-5 μg/μL, or 125-1250 μg total. Approximately ≥10 μg protein per lane is loaded for western blotting (IRF4, IKZF3, etc.) using antibodies against the human proteins.\nMembranes are immunblotted with anti-Aiolos (Santa Cruz Biotechnology, Dallas, Tex.), anti-Ikaros (Millipore, Billerica, Mass.) and anti-Actin (Sigma, St. Louis, Mo.; or LI-COR Biosciences, Lincoln, Nebr.) and secondary antibodies (LI-COR Biosciences, Lincoln, Nebr.). The blots are analyzed on Odyssey imager (LI-COR Biosciences, Lincoln, Nebr.)."}, "[2]": {"test_system": "ABC-DLBCL cell line", "assay": "Tandem Mass Tag proteomics, lenalidomide vs Compound A", "format": "cell-based", "conditions": "ABC-DLBCL cell line; 10 uM; 24 h; vs DMSO", "source_text": "Cells were harvested and proteins were fractionated using a basic pH reverse gradient method. Fractionated samples were labeled using a Tandem Mass Tag method."}, "[3]": {"test_system": "CSNK1A1, Ikaros", "assay": "Western analysis of BMMC or PBMC of lenalidomide-treated AML patients", "format": "in vivo", "conditions": "50 mg daily", "description": "3-5 μg total protein from each sample was evaludated for CSNK1A1, Ikaros, and GAPDH expressions by western analysis."}, "[4]": {"test_system": "HNT-34", "assay": "4 d BrdU cell assay / tritiated thymidine, sensitivity", "format": "cell-based", "description": "(§1) Sensitivity to lenalidomide treatment in a panel of myeloid cancer cell lines was evaluated by tritiated thymidine and/or BrdU assays."}, "[5]": {"test_system": "MDS-L", "assay": "4 d BrdU cell assay / tritiated thymidine, sensitivity", "format": "cell-based", "description": "as §1"}, "[6]": {"test_system": "CSNK1A1 (CK1α), Ikaros", "assay": "MG-132, MLN-4924 or Compound A pre-treatment, Western analysis in HNT-34 cells", "format": "cell-based", "conditions": "10 μM, 3 h or 6 h"}, "[7]": {"test_system": "other myeloid cancer cell lines", "assay": "4 d BrdU cell assay, sensitivity", "format": "cell-based", "conditions": "other cell lines of the panel, predominantly insensitive", "description": "as §1"}, "[8]": {"test_system": "IFN pathway", "assay": "effect on IFN pathway (FIG. 13)", "format": "cell-based"}, "[9]": {"test_system": "DLBCL cell lines (GCB and ABC)", "assay": "tritiated thymidine incorporation proliferation assay", "format": "cell-based", "description": "Cells were then cultured for 3 days at 37° C. Tritiated thymidine was applied to the cell culture for the final 6 hours and cells were then harvested onto filter plates. After the plates have dried, scintillation fluid was added to the plates and read on a Top-count reader.\nThe cells were then analyzed for proliferation using a ^3H-thymidine incorporation assay.\nProliferation was assessed through tritiated thymidine incorporation."}, "[10]": {"test_system": "AML cell line (HNT-34)", "assay": "tandem-mass-tagged proteomics of global cellular protein levels", "format": "cell-based, human", "conditions": "10 micromolar", "description": "(§2) Samples were subjected to multiplexed quantitative mass spectrometry analysis. In particular, cell lysate was prepared from the samples, and was subjected to tandem protein digestion using LysC and trypsin, peptide labeling with either Tandem Mass Tag 6-plex or 10-plex reagents, and peptide fractionation. Multiplexed quantitative mass spectrometry data were collected on an Orbitrap Fusion mass spectrometer operating in a MS3 mode using synchronous precursor selection for the MS2 to MS3 fragmentation. MS/MS data were searched against a Uniprot human database with both the forward and reverse sequences using the SEQUEST algorithm. Additional data processing steps included controlling peptide and protein level false discovery rates, assembling proteins from peptides, and protein quantification from peptides. Each drug-treated sample has 3 replicates, each DMSO sample has 4 replicates.\n(§3) T is the statistic calculated for the t.test. P.value represents statistical significance for the test. Adj.P.value represents FDR multiple testing correction of the P.values in previous parameter. B log odds that the protein is differentially abundant between the conditions (compound vs control)."}, "[11]": {"test_system": "del(5q) MDS cell line (MDS-L)", "assay": "tandem-mass-tagged proteomics of global cellular protein levels", "format": "cell-based, human", "description": "as §2, §3"}}}
{"smiles": "Nc1cccc2c1CN(C1CCC(=O)NC1=O)C2=O", "note": "(stereo not shown) [lenalidomide, 3-(4-amino-1-oxo-1,3-dihydro-isoindol-2-yl)-piperidine-2,6-dione]", "values": [{"measurement": "IRF4 levels", "setting": "[1]; DLBCL cell lines, 1 μM or 10 μM, within 72 hours", "result": "reduce"}, {"measurement": "Aiolos levels", "setting": "[1]; Karpas 422 (GCB) and TMD8 (ABC), 10 μM, 1, 6 or 12 hours, vs DMSO", "result": "decrease"}, {"measurement": "Aiolos and Ikaros levels", "setting": "[1]; WSU-DLCL2 (GCB) and OCI-LY10 (ABC), 10 μM, 1, 6 or 12 hours, vs DMSO", "result": "decreasing"}, {"measurement": "CRBN levels", "setting": "[1]; nine GCB and ABC DLBCL cell lines, 1 μM or 10 μM, 72 hours", "result": "remained constant"}, {"measurement": "Aiolos and Ikaros levels", "setting": "[1]; nine GCB and ABC DLBCL cell lines, 1 μM or 10 μM, 72 hours, vs DMSO", "result": "decreasing"}, {"measurement": "effect on CSNK1A1 protein", "setting": "[2]", "result": "decreases"}, {"measurement": "patients with both CSNK1A1 and Ikaros modulated (down-regulated)", "setting": "[3]", "result": "4 of 5"}, {"measurement": "EC50", "setting": "[4]; 96 h, HNT-34, 4 d BrdU", "result": 0.6, "unit": "µM"}, {"measurement": "sensitivity of HNT-34 cells", "setting": "[4]; FIG. 22B", "result": "sensitive"}, {"measurement": "EC50", "setting": "[5]; 96 h, MDS-L, 4 d BrdU", "result": 1.5, "unit": "µM"}, {"measurement": "sensitivity of MDS-L cells", "setting": "[5]; FIG. 22B", "result": "sensitive"}, {"measurement": "CSNK1A1 and Ikaros proteins levels", "setting": "[6]", "result": "decreased"}, {"measurement": "EC50", "setting": "[7]", "result": "> 10", "unit": "µM"}, {"measurement": "IFIT1, IFIT3, DDX58, XAF1, IFIH1, and OAS3 protein expression", "setting": "[8]; FIG. 13A", "result": "upregulates"}, {"measurement": "DDX58, IFI27, IFIT1, IFIT3, DDX58, and XAF1 gene expression", "setting": "[8]; FIG. 13B", "result": "upregulates"}, {"measurement": "ISG15 and OAS3 gene expression", "setting": "[8]; FIG. 13C", "result": "upregulates"}, {"measurement": "IRF changes", "setting": "[8]; FIG. 13E", "result": "induces"}, {"measurement": "IFIT1 and IFIT3 protein expression", "setting": "[8]; FIG. 13F", "result": "upregulates"}, {"measurement": "IKKE protein level", "setting": "[8]; FIG. 13F", "result": "reduces"}, {"measurement": "TBK1 phosphorylation (TBK1-PO4)", "setting": "[8]; FIG. 13F", "result": "upregulates"}, {"measurement": "levels of STAT or phosphorylated STAT", "setting": "[8]; FIG. 13G", "result": "induces changes"}, {"measurement": "sensitivity of ABC DLBCL cell lines", "setting": "[9]", "result": "sensitive"}, {"measurement": "sensitivity of GCB cell lines", "setting": "[9]", "result": "less sensitive"}, {"measurement": "log2FC CSNK1A1", "setting": "[10]; 8 hours", "result": "−1.6"}, {"measurement": "log2FC IKZF1", "setting": "[10]; 8 hours", "result": "−2.1"}, {"measurement": "log2FC CALM1", "setting": "[10]; 24 hours", "result": "−1.1"}, {"measurement": "log2FC CCNA2", "setting": "[10]; 24 hours", "result": "−1.1"}, {"measurement": "log2FC CSNK1A1", "setting": "[10]; 24 hours", "result": "−1.4"}, {"measurement": "log2FC IKZF1", "setting": "[10]; 24 hours", "result": "−2.4"}, {"measurement": "log2FC SERP1NH1", "setting": "[10]; 24 hours", "result": 1.1}, {"measurement": "log2FC ZFP91", "setting": "[10]; 24 hours", "result": "−1.4"}, {"measurement": "log2FC ARHGAP18", "setting": "[10]; 72 hours", "result": 1.0}, {"measurement": "log2FC CASS4", "setting": "[10]; 72 hours", "result": 1.0}, {"measurement": "log2FC CORO1B", "setting": "[10]; 72 hours", "result": 1.4}, {"measurement": "log2FC CSNK1A1", "setting": "[10]; 72 hours", "result": "−1.5"}, {"measurement": "log2FC DAB2", "setting": "[10]; 72 hours", "result": 1.3}, {"measurement": "log2FC HSPB1", "setting": "[10]; 72 hours", "result": 1.5}, {"measurement": "log2FC IKZF1", "setting": "[10]; 72 hours", "result": "−2.4"}, {"measurement": "log2FC ITM2C", "setting": "[10]; 72 hours", "result": "−1.2"}, {"measurement": "log2FC PPFIBP1", "setting": "[10]; 72 hours", "result": 1.2}, {"measurement": "log2FC SERPINH1", "setting": "[10]; 72 hours", "result": 1.7}, {"measurement": "log2FC ZFP91", "setting": "[10]; 72 hours", "result": "−1.1"}, {"measurement": "log2FC CSNK1A1", "setting": "[11]; 10 micromolar, 8 hours", "result": "−1.6"}, {"measurement": "log2FC IKZF1", "setting": "[11]; 10 micromolar, 8 hours", "result": "−2.1"}, {"measurement": "log2FC CCNA2", "setting": "[11]; 10 micromolar, 24 hours", "result": "−1.1"}, {"measurement": "log2FC CSNK1A1", "setting": "[11]; 10 micromolar, 24 hours", "result": "−1.4"}, {"measurement": "log2FC IKZF1", "setting": "[11]; 10 micromolar, 24 hours", "result": "−2.4"}, {"measurement": "log2FC SERPINH1", "setting": "[11]; 10 micromolar, 24 hours", "result": 1.1}, {"measurement": "log2FC ZFP91", "setting": "[11]; 10 micromolar, 24 hours", "result": "−1.4"}, {"measurement": "log2FC ARHGAP18", "setting": "[11]; 10 micromolar, 72 hours", "result": 1.0}, {"measurement": "log2FC CASS4", "setting": "[11]; 10 micromolar, 72 hours", "result": 1.0}, {"measurement": "log2FC CORO1B", "setting": "[11]; 10 micromolar, 72 hours", "result": 1.4}, {"measurement": "log2FC CSNK1A1", "setting": "[11]; 10 micromolar, 72 hours", "result": "−1.5"}, {"measurement": "log2FC CYTL1", "setting": "[11]; 10 micromolar, 72 hours", "result": "−1.2"}, {"measurement": "log2FC DAB2", "setting": "[11]; 10 micromolar, 72 hours", "result": 1.3}, {"measurement": "log2FC HSPB1", "setting": "[11]; 10 micromolar, 72 hours", "result": 1.5}, {"measurement": "log2FC IKZF1", "setting": "[11]; 10 micromolar, 72 hours", "result": "−2.4"}, {"measurement": "log2FC ITM2C", "setting": "[11]; 10 micromolar, 72 hours", "result": "−1.2"}, {"measurement": "log2FC PPFIBP1", "setting": "[11]; 10 micromolar, 72 hours", "result": 1.2}, {"measurement": "log2FC SERP1NH1", "setting": "[11]; 10 micromolar, 72 hours", "result": 1.7}, {"measurement": "log2FC YEATS2", "setting": "[11]; 10 micromolar, 72 hours", "result": 2.5}, {"measurement": "log2FC ZFP91", "setting": "[11]; 10 micromolar, 72 hours", "result": "−1.1"}, {"measurement": "down-regulation of Ikaros", "setting": "[11]; 72 hrs, most down-regulated protein", "result": "about 5 fold"}, {"measurement": "down-regulation of CSNK1A1", "setting": "[11]; 72 hrs, second most down-regulated protein", "result": "about 3 fold"}]}
